Results from patent US20240207264A1, “PHARMACEUTICAL COMPOSITIONS COMPRISING INHIBITORS OF THE ANDROGEN RECEPTOR AND USES THEREOF” (ESSA PHARMA INC., priority 2021, published 2024).
Entries after “also recorded” stand apart in the source; their conditions may differ.

Key:
[1] = PK study, single PO dose, rats; assay type: in vivo; details: Sprague-Dawley, rat, plasma, male SD rats; for half-life: read-out: T½ (converted)
Protocol: A single PO dose of Compound A in three different formulations were administered to male Sprague-Dawley (SD) rats. Animals in Group 1 (Solution) received Compound A by oral gavage (PO) administration at 30 mg/kg, which was formulated in 4% NMP, 20% Capmul MCM, 21% Vitamin E TPGS, 55% PEG400. Animals in Group 2 (Suspension A) received Compound A by oral gavage (PO) administration at 100 mg/kg, which was formulated in SDD formulation with HPMCAS-H in 0.5% Methocel A4M in water. Mean plasma of Compound A was measured over 24-hour period after administration of Compound A (FIG. 15A) and PK parameters were determined (Table 29).

[2] = PK study, single PO dose, dogs; assay type: in vivo; details: male, Beagle, dog, plasma; for half-life: read-out: T½ (converted)
Protocol: A single PO dose of Compound A in two different formulations were administered to male Beagle dogs. Mean plasma of Compound A was measured over 24-hour period after administration of Compound A (FIG. 15B) and PK parameters were determined (Table 30).

[3] = PK study, single PO dose, mice; assay type: in vivo; details: male, CD-1, mouse, plasma, male CD-1 mice
Protocol: A single PO dose of Compound A in different doses in solid dispersion and at 30 mg/kg dose of Compound A in solution were administered to male CD-1 mice. Mean plasma of Compound A was measured over 24 hour period after administration of Compound A (FIG. 15C) and PK parameters were determined (Table 31).

LNCaP = LNCaP prostate cancer xenograft model; assay type: in vivo; details: LNCaP (AR FL), castrated male mice, 60 mg/kg, Solution, qd24
Protocol: (§1) Compound A's activity was measured in a variety of castrate-sensitive and castrate-resistant prostate cancer (CRPC) xenograft models (Table 32).

VCaP tumors = assay: VCaP prostate cancer xenograft model; assay type: in vivo, SCID Beige male mice; details: VCaP (amplified AR, some AR-V7), castrated male mice, Solution, qd24
LNCaP95 = LNCaP95 prostate cancer xenograft model; assay type: in vivo; details: LNCaP95 (high level AR-V7), castrated male mice, 30 mg/kg, Solution, qd24
Protocol: as §1

22Rv1 = 22Rv1 prostate cancer xenograft model; assay type: in vivo; details: 22Rv1 (high level AR-V7), castrated male mice, 30 mg/kg, Solution, qd28
Protocol: as §1

PC-3 = PC-3 prostate cancer xenograft model; assay type: in vivo; details: PC-3 (non functional AR), intact male mice, 30 mg/kg, Solution, qd28
Protocol: as §1

[4] = Phase I clinical study, PK; assay type: in vivo, human; details: patients; for Cmax / Tmax / AUC(0-t) / half-life: po, 200 mg/day; for AUC(0-t): read-out: AUC0-24; for half-life: read-out: t½ (converted)
Protocol: (§2) Phase I clinical research study of Compound A is studied as a treatment for patients with prostate cancer. All patients in the study receives Compound A at a once daily oral dose of 200 mg, 400 mg, 600 mg, 800 mg, or 1000 mg. Compound A in this study is provided as an SDD composition with HPMCAS-H. One cycle of treatment is 28 days of dosing.
PK parameters were measured from 4 subjects who were administered at 200 mg/day dose (Table 33). One patient discontinued before day 28 due to disease progression. 2 subjects received both abiraterone and enzalutamide prior treatments. 3 subjects received prior chemotherapy with taxanes.

[5] = Phase I clinical study, safety (DLT); assay type: in vivo, human
Protocol: as §2
The primary safety variable for Part 1a of the study is the incidence of protocol-defined dose limiting toxicity (DLT) during the DLT assessment period (first 28 days of dosing). The DLTs will be characterized by type, frequency, severity (as graded by National Cancer Institute Common Terminology Criteria for AEs [NCI CTCAE version 5.0]), timing, seriousness, and relationship to study drug.

[6] = test system: serum prostate specific antigen (PSA); assay: Phase I clinical study, serum PSA; assay type: in vivo, human; details: 200 mg/day
Protocol: as §2
The primary efficacy variable for Part 1b of the study is the proportion of patients with a decline from baseline in prostate specific antigen (PSA) blood concentrations of ≥50% at any time point during daily dosing with Compound A,
The study is still on-going with other dose levels.

[7] = PO 30 mg/kg, Solution (4% NMP, 20% Capmul MCM, 21% Vitamin E TPGS, 55% PEG400)
[8] = PO 100 mg/kg, Suspension A (SDD with HPMCAS-H in 0.5% Methocel A4M in water)
[9] = 50 mg/kg, PO 50 mg/kg, Solution (5% NMP, 20% vitamin E TPGS, 20% PEG 300, 0.5% SLS, 1.09% HPMCAS-H, 53.91% water)
[10] = 50 mg/kg, PO 50 mg/kg, Suspension A (SDD)
[11] = 100 mg/kg, PO 100 mg/kg, Suspension A (SDD)
[12] = 10 mg/kg, PO 10 mg/kg, Suspension A (SDD)
[13] = 30 mg/kg, PO 30 mg/kg, Solution (9% DMSO, 9% NMP, 27% solutol, 55% PEG400)
[14] = 30 mg/kg, PO 30 mg/kg, Suspension A (SDD)
[15] = 90 mg/kg, PO 90 mg/kg, Suspension A (SDD)
[16] = 270 mg/kg, PO 270 mg/kg, Suspension A (SDD)
[17] = male, human, in vivo, 200 mg/day oral SDD with HPMCAS-H, Day 1, N 4
[18] = male, human, in vivo, 200 mg/day oral SDD with HPMCAS-H, Day 28, N 3
[19] = 3 subjects, 28 day dosing at 200 mg/day

In the case of `CC(C)(c1ccc(OCc2ccnc(NS(C)(=O)=O)n2)cc1)c1cc(Cl)c(OCCCl)c(C#N)c1` [Compound A, N-(4-((4-(2-(3-chloro-4-(2-chloroethoxy)-5-cyanophenyl)propan-2-yl)phenoxy)methyl)pyrimidin-2-yl)methanesulfonamide], the AUC(0-t) [1, 7] is reported as 399 µg·h/mL, the Cmax [1, 7] is reported as 26800 ng/mL and the Tmax [1, 7] is reported as 9.3 h. The half-life [1, 7] was 7.6 h, the AUC(0-t) [1, 8] was 1180 µg·h/mL and the Cmax [1, 8] was 89800 ng/mL. For the same molecule, the Tmax [1, 8] was 5.3 h, the half-life [1, 8] was 6.2 h and the AUC(0-t) [2, 9] was 648 µg·h/mL. The Cmax [2, 9] was 45800 ng/mL, the Tmax [2, 9] was 2 h and the half-life [2, 9] was 21.9 h. It also gave an AUC(0-t) [2, 10] of 845 µg·h/mL, a Cmax [2, 10] of 55500 ng/mL and a Tmax [2, 10] of 3.3 h. It also gave a half-life [2, 10] of 16.2 h, an AUC(0-t) [2, 11] of 1450 µg·h/mL and a Cmax [2, 11] of 80600 ng/mL. It also gave a Tmax [2, 11] of 5.3 h, a half-life [2, 11] of 24 h and an AUC(0-inf) [3, 12] of 189 µg·h/mL. It also gave an AUC(0-t) [3, 12] of 177 µg·h/mL, a Cmax [3, 12] of 14300 ng/mL and an AUC(0-inf) [3, 13] of 352 µg·h/mL. It also gave an AUC(0-t) [3, 13] of 336 µg·h/mL, a Cmax [3, 13] of 32000 ng/mL and an AUC(0-inf) [3, 14] of 604 µg·h/mL. For the same molecule, the AUC(0-t) [3, 14] was 565 µg·h/mL, the Cmax [3, 14] was 45900 ng/mL and the AUC(0-inf) [3, 15] was 1700 µg·h/mL. It also gave an AUC(0-t) [3, 15] of 1570 µg·h/mL, a Cmax [3, 15] of 110000 ng/mL and an AUC(0-inf) [3, 16] of 2690 µg·h/mL. For the same molecule, the AUC(0-t) [3, 16] was 2310 µg·h/mL, the Cmax [3, 16] was 162000 ng/mL and the “TGI (Tumor Growth Inhibition)” value (LNCaP) was 93%. The “TGI (Tumor Growth Inhibition)” value (VCaP tumors; 3 mg/kg) was 54%, the “TGI (Tumor Growth Inhibition)” value (VCaP tumors; 10 mg/kg) was 95% and the “TGI (Tumor Growth Inhibition)” value (VCaP tumors; 30 mg/kg) was greater than 100%. For the same molecule, the “TGI (Tumor Growth Inhibition)” value (LNCaP95) was 54%, the “TGI (Tumor Growth Inhibition)” value (22Rv1) was 48% and the “TGI (Tumor Growth Inhibition)” value (PC-3) was 0%. For the same molecule, the Cmax [4, 17] was 3300 ng/mL, the Tmax [4, 17] was 6.5 h and the AUC(0-t) [4, 17] was 53.9 µg·h/mL. It also gave a half-life [4, 17] of 22 h, a Cmax [4, 18] of 8020 ng/mL and a Tmax [4, 18] of 6.7 h. For the same molecule, the AUC(0-t) [4, 18] was 147 µg·h/mL, the half-life [4, 18] was 24.8 h and the concentration at 28 day ([4]; male, human, in vivo, 200 mg/day oral SDD with HPMCAS-H, Day 28, N 3, read-out: Clast) was 4590 ng/mL. The Clast ([4]; 200 mg/day oral SDD with HPMCAS-H, Day 1, N 4) was 1,808 ng/mL, the “time to steady state” value ([4]; repeat QD dosing 200 mg/day) was “after day 8” and the tolerability ([5]; 200 mg/day) was “well tolerated”. For the same molecule, the “dose limiting toxicity (DLT)” value [5, 19] was “No DLTs were observed; also recorded: No dose limiting toxicity was observed”, the severe adverse events [5, 19] was “no severe adverse events were observed” and the “Serum PSA level decline” value ([6]; one subject, after 3 cycles (12 weeks)) was greater than 50%. For the same molecule, the “Serum PSA levels” value ([6]; two other subjects) was “showed increase”.
